Earlier results on 4 compounds are cited in patent US9775855B2, “Compositions comprising macrolide and tetracycline and their uses” (priority 2011, dated 2017).

Structures are written as SMILES. Where two headings read alike, the source gives them in different places.

Assay in data set [1]: not given
The source holds these as a separate data set.

For data set [2] the following is noted: individuals treated for acne for an average of 9 months.
The conditions of data set [3]: room temperature.

Turning to `NNC(=O)c1ccncc1` [Isoniazid, 4-pyridinecarboxylic acid, hydrazide], the solubility in water entry is given as “freely soluble”.

For `CN(C)c1ccc(O)c2c1C[C@H]1C[C@H]3[C@H](N(C)C)C(O)=C(C(N)=O)C(=O)[C@@]3(O)C(O)=C1C2=O` [Minocycline], the “penetration of the cerebral spinal fluid (CSF)” value in data set [1] (human beings, compared with doxycycline and other tetracyclines) is “better than doxycycline and other tetracyclines”. Moreover, in data set [1] (in vivo), the “crossing the blood-brain barrier” value is “capable of crossing the blood-brain barrier”. For the same compound, the “frequency of adverse events” value in data set [2] is reported as “one in a million”.

Consider `NC(=O)c1cnccn1` [Pyrazinamide, pyrazinecarboxamide], for which the solubility in water entry was “sparingly soluble”. Besides, the stability result in data set [3] is “stable at room temperature”.

As to `CO[C@H]1/C=C/O[C@@]2(C)Oc3c(C)c(O)c4c(O)c(c(/C=N/N5CCN(C)CC5)c(O)c4c3C2=O)NC(=O)/C(C)=C\C=C\[C@H](C)[C@H](O)[C@@H](C)[C@@H](O)[C@@H](C)[C@H](OC(C)=O)[C@@H]1C` [Rifampin, 3-[[(4-methyl-1-piperazinyl)imino]-methyl]-rifamycin], under “at neutral pH”, the solubility in water result was “very slightly soluble”.
